Tests used:
MuSCs [1] = assay: VisionBlue metabolic viability dose-response assay; format: cell-based, mouse; settings: dose-response 1-200 ng/ml PGE2
Protocol: Proliferation assays: To assay proliferation, we used three different assays (hemocytometer, VisionBlue, and EdU). For each, we seeded MuSCs on flat hydrogels (hemocytometer and VisionBlue) or collagen-coated plates (EdU assay) at a density of 500 cells per cm^2 surface area. For hemocytometer cell number count, we collected cells at indicated timepoints by incubation with 0.5% trypsin in PBS for 5 min at 37° C. and quantified them using a hemocytometer at least 3 times. Additionally, we used the VisionBlue Quick Cell Viability Fluorometric Assay Kit (BioVision, catalog #K303) as a readout for cell growth in culture. Briefly, we incubated MuSCs with 10% VisionBlue in culture medium for 3 h, and measured fluorescence intensity on a fluorescence plate reader (Infinite M1000 PRO, Tecan) at Ex=530-570 nm, Em=590-620 nm. […] We quantified EdU positive cells using the MetaMorph Image Analysis software (Molecular Devices). Data analyses were blinded, where researchers performing cell scoring were unaware of the treatment condition given to sample groups analyzed.
To assay proliferation, we used three different assays (hemocytometer, VisionBlue, and EdU). […] For hemocytometer cell number count, we collected cells at indicated timepoints by incubation with 0.5% trypsin in PBS for 5 min at 37° C. and quantified them using a hemocytometer at least 3 times. […]

MuSCs [2] = assay: Clonal MuSC proliferation by time-lapse microscopy (38 h); format: cell-based, mouse; settings: PGE2 24 hr
Protocol: We assayed clonal muscle stem cell proliferation by time-lapse microscopy as previously described (26, 27). […] Cells were then trypsinized and reseeded at a density of 500 cells per cm^2 surface area in hydrogel microwells with 600 μm diameter. For time-lapse microscopy we monitored cell proliferation for those wells with single cells for 38 h days after seeding and recorded images every 3 min at 10× magnification using a PALM/AxioObserver Z1 system (Carl Zeiss MicroImaging) with a custom environmental control chamber and motorized stage. We analyzed time-lapse image sequences using the Baxter Algorithms for Cell Tracking and Lineage Reconstruction to identify and track single cells and generate lineage trees (26-28, 51, 52). Viable and dead cells were distinguished in time-lapse sequences based on phase-contrast boundary and motility maintenance or loss, respectively. […] The data analysis was blinded. The researchers performing the imaging acquisition and scoring were unaware of the treatment condition given to sample groups analyzed. Clonal muscle stem cell proliferation and fate analyses: […] Cells were then trypsinized and reseeded at a density of 500 cells per cm^2 surface area in hydrogel microwells with 600 μm diameter. For time-lapse microscopy we monitored cell proliferation for those wells with single cells for 38 h days after seeding and recorded images every 3 min at 10× magnification using a PALM/AxioObserver Z1 system (Carl Zeiss MicroImaging) with a custom environmental control chamber and motorized stage. We analyzed time-lapse image sequences using the Baxter Algorithms for Cell Tracking and Lineage Reconstruction to identify and track single cells and generate lineage trees (26-28, 51, 52). Viable and dead cells were distinguished in time-lapse sequences based on phase-contrast boundary and motility maintenance or loss, respectively. […] The data analysis was blinded. The researchers performing the imaging acquisition and scoring were unaware of the treatment condition given to sample groups analyzed.

## CCCCC[C@H](O)/C=C/[C@H]1[C@H](O)CC(=O)[C@@H]1C/C=C\CCCC(=O)O [PGE2, prostaglandin E2]
MuSCs [1]
  lowest drug concentration that promotes a robust MuSC proliferation response: 10 ng/mL
MuSCs [2]
  cell sizes of tracked MuSCs: increase in the incidence of larger cell sizes
  total cells at the end of the 38 h timespan vs vehicle: almost twice the number of total cells
MuSCs [2]; 38 h tracking
  entry into mitosis post-plating: entry into mitosis is accelerated
MuSCs [2]; 38 h tracking, young MuSCs
  cumulative cell divisions and cell numbers of MuSC clones: marked increase in cumulative cell divisions and cell numbers

Reference: patent publication US11738031B2, “Compositions and methods for preventing or treating muscle conditions” (The Board of Trustees of the Leland Stanford Junior …, priority 2017, dated 2023)
